Consider 28 compounds from paper PMC2248166, “Quantitative peptide binding motifs for 19 human and mouse MHC class I molecules derived using positional scanning combinatorial peptide libraries” (Immunome Research, 2008).

Molecules are shown by their SMILES. Where a SMILES comes first, the peptide text is derived from it.

This assay concerns the target HLA B*1503 (Homo sapiens, UniProt P01889, A329T/A93T/A95T/C349S/D201E/D98Y/E187L/E204Q/K202T/N87E/Q94N/R155S/R180L/S121R/S35A/V306I/V36M/Y140S/Y91S). Nature of the assay: biochemical. In kind it is binding.

The term IC50 denotes the midpoint of a concentration-inhibition curve. Low values mean higher potency, high ones lower potency.

Take `CC(C)C[C@H](N)C(=O)N[C@@H](CCCCN)C(=O)N[C@@H](Cc1ccc(O)cc1)C(=O)N[C@@H](Cc1ccc(O)cc1)C(=O)N[C@@H](Cc1ccc(O)cc1)C(=O)N[C@@H](CO)C(=O)N[C@@H](CC(N)=O)C(=O)N[C@@H](CO)C(=O)N[C@@H](Cc1ccc(O)cc1)C(=O)O` [3102.1265] (H-LKYYYSNSY-OH): the IC50 is 0.24 nM. In other words, the sub-nanomolar range.
In turn, `CC(C)[C@H](NC(=O)[C@@H](NC(=O)[C@H](CC(=O)O)NC(=O)[C@H](CO)NC(=O)[C@H](CCC(N)=O)NC(=O)[C@H](CO)NC(=O)[C@H](CCCCN)NC(=O)[C@H](C)N)[C@@H](C)O)C(=O)N[C@@H](Cc1ccccc1)C(=O)O` [3102.1191] (H-AKSQSDTVF-OH) registered a half-inhibitory concentration (IC50) of 0.16 nM. This IC50 is about 1.5-fold lower than that of the compound before.
`CC(C)C[C@H](NC(=O)[C@H](CO)NC(=O)[C@@H]1CCCN1C(=O)[C@H](CO)NC(=O)[C@H](Cc1ccccc1)NC(=O)[C@H](CO)NC(=O)[C@@H](NC(=O)[C@H](CO)NC(=O)[C@@H](N)Cc1ccccc1)C(C)C)C(=O)O` [3102.1332] (H-FSVSFSPSL-OH) had a concentration for half-maximal inhibition (IC50) of 22 nM.
Next, `CC[C@H](C)[C@H](NC(=O)[C@H](Cc1ccc(O)cc1)NC(=O)[C@H](CCC(N)=O)NC(=O)[C@@H](N)Cc1ccc(O)cc1)C(=O)N[C@@H](Cc1ccccc1)C(=O)N[C@@H](CC(C)C)C(=O)N[C@@H](CO)C(=O)N[C@@H](Cc1ccccc1)C(=O)N[C@@H](Cc1ccccc1)C(=O)O` [3102.1259]: 0.94 nM.
Next, `CC(C)[C@H](NC(=O)[C@H](Cc1c[nH]cn1)NC(=O)[C@H](CCC(N)=O)NC(=O)CNC(=O)[C@H](Cc1ccccc1)NC(=O)[C@H](CS)NC(=O)[C@H](CC(N)=O)NC(=O)[C@H](C)NC(=O)[C@H](C)N)C(=O)O` [3102.1133] (H-AANCFGQHV-OH): 22 nM; `CC[C@H](C)[C@H](N)C(=O)N[C@@H](CCCCN)C(=O)N[C@@H](CCC(=O)O)C(=O)N[C@@H](CC(N)=O)C(=O)N[C@@H](CO)C(=O)N[C@H](C(=O)N[C@@H](Cc1ccc(O)cc1)C(=O)N[C@@H](CO)C(=O)N[C@@H](Cc1ccccc1)C(=O)O)[C@@H](C)CC` [3102.1146] (H-IKENSIYSF-OH): 1.5 nM.
Next, `CC(C)C[C@H](N)C(=O)N[C@@H](CCC(=O)O)C(=O)N[C@@H](Cc1ccccc1)C(=O)N[C@@H](CC(N)=O)C(=O)N[C@H](C(=O)N1CCC[C@H]1C(=O)N[C@@H](Cc1ccccc1)C(=O)N[C@H](C(=O)N[C@@H](Cc1ccccc1)C(=O)O)C(C)C)[C@@H](C)O` [3102.1212] (H-LEFNTPFVF-OH): 10 nM; `CC[C@H](C)[C@H](NC(=O)[C@H](CC(N)=O)NC(=O)[C@H](CC(C)C)NC(=O)[C@H](Cc1ccccc1)NC(=O)[C@H](CC(C)C)NC(=O)[C@@H](N)Cc1ccccc1)C(=O)N[C@@H](CC(N)=O)C(=O)N[C@@H](Cc1c[nH]cn1)C(=O)N[C@@H](Cc1ccc(O)cc1)C(=O)O` [3102.1309] (H-FLFLNINHY-OH): 6.5 nM.
As to `CC(C)C[C@H](NC(=O)[C@H](Cc1ccc(O)cc1)NC(=O)[C@H](CCC(N)=O)NC(=O)[C@H](Cc1ccccc1)NC(=O)[C@H](CCC(N)=O)NC(=O)[C@@H]1CCCN1C(=O)[C@H](CCC(N)=O)NC(=O)[C@H](CCC(N)=O)NC(=O)[C@@H](N)Cc1ccccc1)C(=O)O` [3102.1233] (H-FQQPQFQYL-OH), the concentration for half-maximal inhibition (IC50) came out at 23 nM. This IC50 lies about 3.5-fold higher than the previous one.
`CC[C@H](C)[C@H](NC(=O)[C@@H]1CCCN1C(=O)[C@H](CO)NC(=O)CNC(=O)[C@H](CC(=O)O)NC(=O)[C@H](CC(C)C)NC(=O)[C@@H](NC(=O)[C@H](CCCCN)NC(=O)[C@@H](N)Cc1ccccc1)C(C)C)C(=O)O` [3102.1070] (H-FKVLDGSPI-OH) came in with a half-inhibitory concentration (IC50) of 0.82 nM.
Then `CC(C)[C@H](NC(=O)[C@H](Cc1ccc(O)cc1)NC(=O)[C@H](CCCNC(=N)N)NC(=O)[C@@H](NC(=O)[C@H](CC(N)=O)NC(=O)[C@H](Cc1ccc(O)cc1)NC(=O)[C@H](CCCCN)NC(=O)[C@@H](N)CCCCN)C(C)C)C(=O)N[C@@H](Cc1ccccc1)C(=O)O` [3102.1267] (H-KKYNVRYVF-OH), with 1 nM; and `CC[C@H](C)[C@H](NC(=O)[C@H](Cc1c[nH]cn1)NC(=O)[C@H](CC(N)=O)NC(=O)[C@H](CCCCN)NC(=O)[C@@H](N)CCCNC(=N)N)C(=O)N[C@@H](Cc1ccc(O)cc1)C(=O)N[C@@H](CC(N)=O)C(=O)N[C@@H](CO)C(=O)N[C@@H](Cc1ccccc1)C(=O)O` [3102.1203] (H-RKNHIYNSF-OH), with 0.13 nM.
Next, `C[C@H](NC(=O)[C@@H](N)CCCNC(=N)N)C(=O)N[C@@H](CO)C(=O)N[C@@H](CO)C(=O)NCC(=O)N[C@@H](CC(=O)O)C(=O)N[C@@H](CO)C(=O)N[C@@H](CO)C(=O)N[C@@H](Cc1ccccc1)C(=O)O` [3102.1236] (H-RASSGDSSF-OH): 21 nM; `CC[C@H](C)[C@H](NC(=O)[C@H](CCSC)NC(=O)[C@H](CC(=O)O)NC(=O)[C@H](CC(N)=O)NC(=O)[C@@H](NC(=O)[C@H](CCSC)NC(=O)[C@H](CCC(N)=O)NC(=O)[C@@H](N)CCCNC(=N)N)C(C)C)C(=O)N[C@@H](Cc1ccccc1)C(=O)O` [3102.1102] (H-RQMVNDMIF-OH): 1.3 nM; `CC[C@H](C)[C@H](NC(=O)[C@@H](NC(=O)CNC(=O)[C@H](CCC(=O)O)NC(=O)[C@@H]1CCCN1C(=O)[C@H](CCC(N)=O)NC(=O)[C@@H](N)CCCCN)C(C)C)C(=O)N[C@@H](CC(C)C)C(=O)N[C@@H](Cc1ccccc1)C(=O)O` [3102.1100] (H-KQPEGVILF-OH): 3.7 nM.
As to `CC[C@H](C)[C@H](N)C(=O)N[C@@H](CCC(N)=O)C(=O)N[C@@H](Cc1ccccc1)C(=O)N[C@@H](CCSC)C(=O)N[C@@H](Cc1c[nH]cn1)C(=O)N[C@@H](CCC(=O)O)C(=O)N[C@@H](CCC(N)=O)C(=O)NCC(=O)N[C@@H](Cc1ccc(O)cc1)C(=O)O` [3102.1159] (H-IQFMHEQGY-OH), the IC50 came out at 3.7 nM. This counts as single-digit nanomolar.
For the compound `CC(C)C[C@H](NC(=O)[C@H](CCC(=O)O)NC(=O)[C@@H](NC(=O)[C@H](CO)NC(=O)[C@H](CO)NC(=O)[C@@H](NC(=O)[C@H](CCC(N)=O)NC(=O)[C@@H](N)CO)C(C)C)[C@@H](C)O)C(=O)N[C@@H](Cc1ccccc1)C(=O)O` [3102.1264] (H-SQVSSTELF-OH), the IC50 turned out to be 1.8 nM.
Compound `CC[C@H](C)[C@H](NC(=O)CNC(=O)[C@H](CC(C)C)NC(=O)[C@H](CCSC)NC(=O)[C@H](CO)NC(=O)[C@@H](N)Cc1ccccc1)C(=O)N[C@@H](Cc1c[nH]c2ccccc12)C(=O)N[C@@H](Cc1ccccc1)C(=O)N[C@@H](Cc1ccccc1)C(=O)O` [3102.1113] (H-FSMLGIWFF-OH) returned a half-inhibitory concentration (IC50) of 28 nM.
For the compound `CC[C@H](C)[C@H](NC(=O)[C@H](CO)NC(=O)[C@H](Cc1ccc(O)cc1)NC(=O)[C@@H](NC(=O)[C@H](C)NC(=O)[C@H](Cc1c[nH]cn1)NC(=O)[C@@H](N)CC(C)C)C(C)C)C(=O)N[C@H](C(=O)N[C@@H](Cc1ccccc1)C(=O)O)C(C)C` [3102.1145] (H-LHAVYSIVF-OH), the IC50 amounted to 8.8 nM.
Next, `CC(C)C[C@H](NC(=O)[C@H](CC(N)=O)NC(=O)[C@H](CC(C)C)NC(=O)[C@H](CCCNC(=N)N)NC(=O)[C@H](CCCNC(=N)N)NC(=O)[C@H](CO)NC(=O)[C@H](CCCCN)NC(=O)[C@@H](N)CO)C(=O)N[C@@H](Cc1ccccc1)C(=O)O` [3102.1061] (H-SKSRRLNLF-OH): 2.4 nM; `CC[C@H](C)[C@H](NC(=O)[C@@H](NC(=O)[C@H](CC(C)C)NC(=O)[C@H](CCSC)NC(=O)[C@H](CCCCN)NC(=O)[C@@H](N)CC(N)=O)[C@@H](C)O)C(=O)N[C@H](C(=O)N[C@@H](CO)C(=O)N[C@@H](Cc1ccccc1)C(=O)O)[C@@H](C)O` [3102.1234] (H-NKMLTITSF-OH): 1.4 nM.
Next, `CC[C@H](C)[C@H](NC(=O)[C@H](CO)NC(=O)[C@@H](NC(=O)[C@H](CCC(N)=O)NC(=O)[C@H](CO)NC(=O)[C@H](CC(N)=O)NC(=O)[C@H](Cc1ccccc1)NC(=O)[C@H](CCCCN)NC(=O)[C@@H](N)Cc1ccccc1)C(C)C)C(=O)O` [3102.1116] (H-FKFNSQVSI-OH): 1.2 nM; `CC[C@H](C)[C@H](NC(=O)[C@H](CC(N)=O)NC(=O)[C@H](Cc1c[nH]cn1)NC(=O)[C@H](CCC(N)=O)NC(=O)[C@@H](N)C(C)C)C(=O)N[C@@H](CCCCN)C(=O)N[C@@H](Cc1c[nH]cn1)C(=O)N[C@@H](CO)C(=O)N[C@@H](Cc1ccccc1)C(=O)O` [3102.1075] (H-VQHNIKHSF-OH): 0.2 nM.
Then `CC[C@H](C)[C@H](N)C(=O)N[C@@H](CC(C)C)C(=O)N[C@@H](Cc1c[nH]cn1)C(=O)N[C@H](C(=O)N[C@@H](CC(=O)O)C(=O)N[C@H](C(=O)N[C@@H](CC(C)C)C(=O)N[C@@H](CO)C(=O)N[C@@H](Cc1ccccc1)C(=O)O)[C@@H](C)CC)C(C)C` [3102.1261] (H-ILHVDILSF-OH), with 24 nM; and `CC(C)C[C@H](NC(=O)[C@H](C)NC(=O)[C@H](CO)NC(=O)[C@@H](N)Cc1ccccc1)C(=O)N1CCC[C@H]1C(=O)N[C@H](C(=O)N[C@@H](CC(N)=O)C(=O)N[C@@H](CCC(=O)O)C(=O)N[C@@H](Cc1ccccc1)C(=O)O)[C@@H](C)O` [3102.1337] (H-FSALPTNEF-OH), with 0.13 nM; and `CSCC[C@H](NC(=O)[C@H](CCCCN)NC(=O)[C@@H](N)CCCCN)C(=O)N[C@@H](CCC(N)=O)C(=O)N[C@@H](CO)C(=O)N[C@@H](Cc1ccc(O)cc1)C(=O)N[C@@H](CC(N)=O)C(=O)N[C@@H](CO)C(=O)N[C@H](C(=O)O)C(C)C` [3102.1143] (H-KKMQSYNSV-OH), with 2.8 nM.
Turning to `CC[C@H](C)[C@H](N)C(=O)N[C@@H](CCC(N)=O)C(=O)N[C@@H](Cc1ccc(O)cc1)C(=O)N[C@@H](CC(=O)O)C(=O)N[C@@H](CCCNC(=N)N)C(=O)N[C@@H](CCCNC(=N)N)C(=O)N[C@@H](CO)C(=O)N[C@@H](Cc1ccccc1)C(=O)N[C@@H](Cc1ccccc1)C(=O)O` [3102.1327] (H-IQYDRRSFF-OH), half-maximal inhibition (IC50) required 0.15 nM. Compared with the last compound, the IC50 is about 19-fold lower.
Turning to `C[C@H](NC(=O)[C@H](Cc1c[nH]c2ccccc12)NC(=O)[C@H](CO)NC(=O)CNC(=O)[C@@H](N)CCCNC(=N)N)C(=O)N[C@H](C(=O)N[C@@H](CO)C(=O)N[C@@H](CO)C(=O)N[C@@H](Cc1ccccc1)C(=O)O)[C@@H](C)O` [3102.1323] (H-RGSWATSSF-OH), the IC50 was 11 nM.
